Values joined by “and” are separate entries in the source; they are usually repeats but may differ in a detail not shown here. Equal values may be shown once.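 How tested: cells in 96-well plates exposed to compound for 48 hours at five concentrations. Here, GI50 denotes the concentration required for 50% inhibition of growth. TGI denotes the concentration required for complete inhibition of growth.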
Key:
Assay in all cases: DTP human tumour cell line panel, 48 h
[1] = tested on: CAKI-1 renal
[2] = tested on: TK-10 renal
[3] = tested on: OVCAR-5 ovarian
[4] = tested on: PC-3 prostate
[5] = tested on: SK-MEL-2 melanoma
[6] = tested on: UO-31 renal
[7] = tested on: HCC-2998 colon
[8] = tested on: NCI-H522 lung
[9] = tested on: HOP-92 NSCLC
[10] = tested on: NCI-H460 lung

SMILES | GI50 [1] | GI50 [2] | GI50 [3] | GI50 [4] | GI50 [5] | GI50 [6] | TGI [6] | GI50 [7] | GI50 [8] | TGI [8] | GI50 [9] | GI50 [10] | TGI [10] | TGI [1] | TGI [2] | TGI [3] | TGI [4] | TGI [5] | TGI [7] | TGI [9]
COc1ccc(C2CC(c3ccc4ccccc4c3)=NN2c2nc(O)c(C3=c4cc(Cl)ccc4=NC3=O)s2)cc1 (stereo not given) | 36 nM and < 5 nM | 19.5 nM and < 5 nM | 26.3 nM and < 5 nM | 28.3 nM and < 5 nM | 26.3 nM and < 5 nM | 19.3 nM and < 5 nM | 0.0436 µM and < 0.005 µM | 21.6 nM and < 5 nM | 18.3 nM and < 5 nM | 0.0402 µM and < 0.005 µM | 16.8 nM and < 5 nM | 21.6 nM | 0.0472 µM |  |  |  |  |  |  | 
CN(C)c1ccc(/C=N/n2c(CCCCc3n[nH]c(=S)n3/N=C/c3ccc(N(C)C)cc3)n[nH]c2=S)cc1 | > 100000 nM | > 100000 nM | > 100000 nM | > 100000 nM | > 100000 nM | > 100000 nM | > 100 µM | > 100000 nM | > 100000 nM | > 100 µM | > 100000 nM | > 100000 nM | > 100 µM | > 100 µM | > 100 µM | > 100 µM | > 100 µM | > 100 µM | > 100 µM | > 100 µM
CC[C@H](C)[C@H](NC(=O)[C@H]1CCCCN1C)C(=O)N(C)[C@H](C[C@@H](OC(C)=O)c1nc(C(=O)NC23C4C5C2C2C3C4C52C(=O)OC)cs1)C(C)C (stereo not given in full) | 16 nM | 4.24 nM | 70.2 nM and 70.7 nM | 2.63 nM and 2.5 nM | 1.85 nM and 2.5 nM | 35.8 nM and 11.4 nM | > 25 µM | 3.36 nM and 2.5 nM | 0.331 nM and < 2.5 nM |  | 5440 nM | 3 nM and 2.5 nM | > 25 µM |  |  | > 25 µM | > 25 µM | 0.00452 µM | 14.3 µM | > 25 µM
CN(CCCCCCCCNc1ccnc2ccccc12)Cc1ccc(-c2ccc(-c3ccc(C#N)cc3)s2)cc1 | 1300 nM | 1570 nM | 1390 nM | 766 nM | 1850 nM | 1230 nM | 2.57 µM | 275 nM | 1350 nM | 3.36 µM | 337 nM | 367 nM | 1.25 µM | 2.65 µM | 3.18 µM | 2.73 µM | 2.3 µM | 3.83 µM | 1.04 µM | 2.53 µM
O=C(CS(=O)c1nc2ccccc2nc1-c1ccccc1)Nc1ccc(Cl)cc1 (stereo not given) | 20100 nM | 27800 nM | 33700 nM | 26100 nM | 27400 nM | 25000 nM | > 100 µM | 28600 nM | 18600 nM | 60.1 µM | 12300 nM | 18600 nM | 47.7 µM | 57.5 µM | 82.7 µM | > 100 µM | > 100 µM | 65.5 µM | 84.9 µM | 49.2 µM
C=C1C(=O)O[C@H]2[C@H]1CC/C(CNC(=O)C(C)c1ccc(CC(C)C)cc1)=C\CC[C@@]1(C)O[C@@H]21 (stereo not given in full) | 1690 nM | 1660 nM | 1920 nM | 1770 nM | 1600 nM | 1330 nM | 2.6 µM | 1830 nM | 1630 nM | 3.5 µM | 1500 nM | 1940 nM | 3.97 µM | 3.06 µM | 3.02 µM | 4.04 µM | 3.82 µM | 3.18 µM | 3.38 µM | 2.92 µM
O=C1NC(c2cccc3ccccc23)Nc2ccccc21 (stereo not given) | 28.2 nM | 54.5 nM |  | 26.3 nM |  | 36.2 nM | > 100 µM | 173 nM | 19.4 nM and 49.7 nM | 0.0765 µM and 0.25 µM |  | 40.5 nM | 0.73 µM and 4.89 µM | 1.82 µM | > 68 µM | > 65.3 µM | 0.213 µM | 7.5 µM and > 20.2 µM | 0.743 µM and 0.489 µM | 
C=C1C(=O)O[C@H]2C3OC3(C)CC/C=C(/C(=O)OC)[C@@H](OC(C)=O)[C@H](OC(=O)C3(C)OC3C)[C@H]12 (stereo not given in full) | 206 nM and 1.12 µM and 0.579 µg/mL | 1.63 µM and 3.42 µM and 0.719 µg/mL | 2.6 µg/mL | 2990 nM |  | 2.29 µM and 2.04 µM and 2.66 µg/mL | 6.69 µM and 9.13 µM and 5.8 µg/mL | 3.65 µM and 2.5 µg/mL | 89.1 nM and 122 nM | 0.242 µM and 0.241 µM | 0.817 µg/mL | 3.13 µM and 3.6 µg/mL | 11.1 µM and 9.89 µg/mL | 478 nM and 2.35 µM and 1.57 µg/mL | 3.24 µM and 9.88 µM and 2.43 µg/mL | 8.82 µM and 4.66 µg/mL | 5.16 µM and 11.7 µM |  | 12.4 µM and 4.62 µg/mL | 3.13 µM and 1.26 µg/mL
CCOC(=O)Nc1cc2c(c(N)n1)N=C(c1ccccc1)CN2 |  |  |  | < 0.1 nM |  | 107 nM |  |  | < 0.1 nM | < 0.0001 µM | < 0.1 nM | < 0.1 nM | 0.485 µM | 27.7 µM | > 60.7 µM | 27.7 µM | < 0.0001 µM |  | 0.0445 µM | 34.8 µM
CCN(CC)CCNc1ccc(N=Nc2cnc3ccccc3c2)c2ccccc12 | 1390 nM | 2100 nM | 1640 nM | 1280 nM | 2340 nM | 1510 nM | 3.05 µM | 1750 nM | 1910 nM | 3.54 µM |  | 1720 nM | 3.18 µM | 3.21 µM | 3.87 µM | 3.24 µM | 2.6 µM | 4.3 µM | 3.16 µM | 
CCCn1cc(/C=N\N=C2\C(=O)Nc3ccc(C)cc32)c2ccccc21 |  | 11100 nM | 4040 nM | 1830 nM | 2420 nM | 2280 nM | 61.8 µM | 2090 nM | 1810 nM | 6.59 µM | 1870 nM | 2170 nM | 10.6 µM |  | > 100 µM | 25.8 µM | 5.17 µM | 8.03 µM | 5.14 µM | 6.57 µM
O=C(O)C1C2C=CC(O2)C1C(=O)NCc1ccncc1 (stereo not given) |  |  |  |  |  |  | > 100 µM |  |  | > 100 µM |  |  | > 100 µM | > 100 µM | > 100 µM | > 100 µM | > 100 µM | > 100 µM |  | > 100 µM
N#Cc1ccc(O)c(C2=NCC(c3ccc(-c4ccccc4)cc3)O2)c1 (stereo not given) | 106 nM |  | 941 nM | 471 nM | 746 nM | 406 nM | 4.13 µM | 628 nM | 400 nM | 10.6 µM | 421 nM | 279 nM | 8.75 µM | 13.1 µM |  | 28.9 µM | 22.8 µM | 15.8 µM | 21.6 µM | 22.5 µM

From PubChem BioAssay (NCI)
